In publication PMC11397024, “Strategic Fluorination to Achieve a Potent, Selective, Metabolically Stable, and Orally Bioavailable Inhibitor of CSNK2” (Molecules, 2024):
Entries after “also recorded” stand apart in the source; their conditions may differ.

Assays:
CSNK2 [1] = test: In vivo CSNK2 inhibition (substrate phosphorylation in lungs); set-up: species or system Balb/c mice; conditions: 30 mg/kg p.o. b.i.d.
Procedure: Balb/c mice (female, 8-10 weeks old, from Envigo, Inotiv, Indianapolis, IN, USA) were treated with compound 2 at 30 mg/kg p.o. in a vehicle (DMSO/PEG-400/Water (v/v/v), 10:30:60). Mice were dosed every 12 h for a total of 36 h (3 doses). At the determined time points, mice were euthanized using an overdose of isoflurane (Baxter, Deerfield, IL, USA). Blood was collected via cardiac puncture and lung lobes were collected for downstream processing and analysis. Recovered blood was placed in EDTA tubes, spun at 5000× g in a microcentrifuge and the recovered plasma transferred to a clean tube and frozen at -80 °C until analysis. The left lung lobe was added to a 2 mL O-ring skirted tube containing 750 μL of 1 × PBS containing Phos Stop (per the manufacturer's recommendation, Roche) and glass beads. Lungs were homogenized for 60 s at 6000 rpm in a Roche MagNA Lyser. Homogenates were centrifuged for 5 min at 10,000 rpm and 500 μL of the homogenate was transferred to a clean tube and frozen at -80 °C until analysis. […] Samples were quantified using the Piece Rapid Gold BCA Protein Assay kit (ThermoFisher, A53226, Waltham, MA, USA), and 50 μg protein was run on 4-20% Tris-Glycine gels and transferred to PVDF. […] Bands were quantified using Fiji and normalized to GAPDH. […]

CSNK2 [2] = test: In vitro inhibition of phosphorylation of EIF2S2; assay type: cell-based, Human; conditions: A549-ACE2 cells, 1 μM and 5 μM, 24 h, Western blot
NEK2 = molecular target: T1, NEK2 (Homo sapiens, UniProt P51955); test: NanoBRET K192; assay type: cell-based; conditions: HEK293
T1 construct: purchased Promega (NanoBRET Target Engagement K192 Kinase Selectivity System)
Method in brief: (§1)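 HEK293 cells were transfected overnight with NanoLuc–kinase fusion vectors, then treated for 2 h at 37 °C with compound (added as 100 μM working solution) plus K10 tracer. BRET was read at 450/610 nm after substrate and extracellular inhibitor, and fractional occupancy was calculated against no-compound controls.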

RIOK2 = molecular target: T2, RIOK2 (Homo sapiens, UniProt Q9BVS4); test: NanoBRET K192; assay type: cell-based; conditions: HEK293
T2 construct: purchased Promega (NanoBRET Target Engagement K192 Kinase Selectivity System)
Method in brief: as §1

BRSK2 = molecular target: T3, BRSK2 (Homo sapiens, UniProt Q8IWQ3); test: NanoBRET K192; assay type: cell-based; conditions: HEK293
T3 construct: purchased Promega (NanoBRET Target Engagement K192 Kinase Selectivity System)
Method in brief: as §1

MAST4 = molecular target: T4, MAST4 (Homo sapiens, UniProt O15021); test: NanoBRET K192; assay type: cell-based; conditions: HEK293
T4 construct: purchased Promega (NanoBRET Target Engagement K192 Kinase Selectivity System)
T4 sequence (O15021 whole entry): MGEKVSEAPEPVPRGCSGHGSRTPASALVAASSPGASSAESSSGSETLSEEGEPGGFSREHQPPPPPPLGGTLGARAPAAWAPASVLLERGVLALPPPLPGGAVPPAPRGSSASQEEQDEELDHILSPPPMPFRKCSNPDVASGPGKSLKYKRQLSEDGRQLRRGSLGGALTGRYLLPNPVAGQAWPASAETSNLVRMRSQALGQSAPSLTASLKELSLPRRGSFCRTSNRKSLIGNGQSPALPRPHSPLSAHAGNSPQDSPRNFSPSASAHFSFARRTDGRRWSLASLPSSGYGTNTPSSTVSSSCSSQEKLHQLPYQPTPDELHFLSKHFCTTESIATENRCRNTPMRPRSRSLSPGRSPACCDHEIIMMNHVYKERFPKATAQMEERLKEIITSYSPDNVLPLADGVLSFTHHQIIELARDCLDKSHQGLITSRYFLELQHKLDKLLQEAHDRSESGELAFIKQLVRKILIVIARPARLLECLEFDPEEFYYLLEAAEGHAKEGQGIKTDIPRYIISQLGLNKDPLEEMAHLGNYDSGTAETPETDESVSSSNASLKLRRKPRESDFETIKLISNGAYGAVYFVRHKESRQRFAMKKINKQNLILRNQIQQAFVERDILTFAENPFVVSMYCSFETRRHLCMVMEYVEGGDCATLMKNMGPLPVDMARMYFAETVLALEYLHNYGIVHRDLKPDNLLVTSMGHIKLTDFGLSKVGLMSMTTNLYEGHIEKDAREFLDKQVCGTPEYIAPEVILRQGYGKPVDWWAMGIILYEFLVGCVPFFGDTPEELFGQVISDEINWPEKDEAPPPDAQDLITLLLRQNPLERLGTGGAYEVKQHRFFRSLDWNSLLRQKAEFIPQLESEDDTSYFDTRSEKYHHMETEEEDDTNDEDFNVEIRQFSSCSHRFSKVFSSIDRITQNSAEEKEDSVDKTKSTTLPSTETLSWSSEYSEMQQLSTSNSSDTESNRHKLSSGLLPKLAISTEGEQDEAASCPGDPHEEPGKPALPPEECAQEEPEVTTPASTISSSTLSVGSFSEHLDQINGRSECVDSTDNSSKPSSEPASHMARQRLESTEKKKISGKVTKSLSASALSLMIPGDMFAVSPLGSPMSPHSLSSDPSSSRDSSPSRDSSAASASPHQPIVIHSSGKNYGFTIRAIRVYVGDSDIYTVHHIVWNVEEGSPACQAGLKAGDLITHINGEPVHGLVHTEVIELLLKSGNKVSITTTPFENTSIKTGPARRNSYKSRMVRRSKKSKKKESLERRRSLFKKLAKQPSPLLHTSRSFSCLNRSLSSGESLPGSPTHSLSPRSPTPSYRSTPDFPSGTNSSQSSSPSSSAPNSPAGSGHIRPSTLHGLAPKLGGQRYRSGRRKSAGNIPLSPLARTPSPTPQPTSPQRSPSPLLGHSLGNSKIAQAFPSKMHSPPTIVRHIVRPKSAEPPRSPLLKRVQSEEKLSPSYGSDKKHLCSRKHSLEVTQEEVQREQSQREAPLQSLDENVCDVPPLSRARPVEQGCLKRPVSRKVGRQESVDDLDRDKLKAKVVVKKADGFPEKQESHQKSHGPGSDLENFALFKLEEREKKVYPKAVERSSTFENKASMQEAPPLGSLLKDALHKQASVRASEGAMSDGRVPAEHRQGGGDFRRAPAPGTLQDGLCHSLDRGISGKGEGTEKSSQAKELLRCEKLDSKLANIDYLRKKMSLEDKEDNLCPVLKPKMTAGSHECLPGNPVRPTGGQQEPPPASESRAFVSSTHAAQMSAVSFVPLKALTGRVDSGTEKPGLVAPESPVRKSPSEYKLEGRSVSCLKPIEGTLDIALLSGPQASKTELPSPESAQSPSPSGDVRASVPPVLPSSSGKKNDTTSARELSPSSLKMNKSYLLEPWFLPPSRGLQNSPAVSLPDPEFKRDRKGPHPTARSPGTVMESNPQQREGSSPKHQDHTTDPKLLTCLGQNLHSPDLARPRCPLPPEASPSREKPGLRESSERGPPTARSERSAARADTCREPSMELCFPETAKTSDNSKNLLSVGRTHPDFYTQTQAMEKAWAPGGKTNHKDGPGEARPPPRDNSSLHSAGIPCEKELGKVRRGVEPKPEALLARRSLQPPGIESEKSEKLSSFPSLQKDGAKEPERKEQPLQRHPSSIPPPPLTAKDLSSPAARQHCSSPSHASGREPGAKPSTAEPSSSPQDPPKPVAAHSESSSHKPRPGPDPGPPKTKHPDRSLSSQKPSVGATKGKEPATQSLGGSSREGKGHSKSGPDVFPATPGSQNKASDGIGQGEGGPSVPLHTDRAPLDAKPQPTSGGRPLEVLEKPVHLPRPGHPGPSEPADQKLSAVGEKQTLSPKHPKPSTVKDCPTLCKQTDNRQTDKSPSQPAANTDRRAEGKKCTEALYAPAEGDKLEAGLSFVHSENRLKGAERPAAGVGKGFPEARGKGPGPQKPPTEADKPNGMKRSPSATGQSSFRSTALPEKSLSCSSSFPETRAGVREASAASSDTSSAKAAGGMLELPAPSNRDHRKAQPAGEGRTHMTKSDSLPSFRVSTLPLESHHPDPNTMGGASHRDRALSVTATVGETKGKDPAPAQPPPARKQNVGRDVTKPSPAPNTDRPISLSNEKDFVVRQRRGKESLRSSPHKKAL
Method in brief: as §1

RPS6KA3 = molecular target: T5, RPS6KA3 (Homo sapiens, UniProt P51812); test: NanoBRET K192; assay type: cell-based; conditions: HEK293
T5 construct: purchased Promega (NanoBRET Target Engagement K192 Kinase Selectivity System)
Method in brief: as §1

EPHA7 = molecular target: T6, EPHA7 (Homo sapiens, UniProt Q15375); test: NanoBRET K192; assay type: cell-based; conditions: HEK293
T6 construct: host or cells: HEK293
Method in brief: as §1

TNNI3K = molecular target: T7, TNNI3K (Homo sapiens, UniProt Q59H18); test: NanoBRET K192; assay type: cell-based; conditions: HEK293
T7 construct: purchased Promega (NanoBRET Target Engagement K192 Kinase Selectivity System)
Method in brief: as §1

INSR = molecular target: T8, INSR (Homo sapiens, UniProt P06213); test: NanoBRET K192; assay type: cell-based; conditions: HEK293
T8 construct: purchased Promega (NanoBRET Target Engagement K192 Kinase Selectivity System)
Method in brief: as §1

CSNK1G2 = molecular target: T9, CSNK1G2 (Homo sapiens, UniProt P78368); test: NanoBRET K192; assay type: cell-based; conditions: HEK293
T9 construct: purchased Promega (NanoBRET Target Engagement K192 Kinase Selectivity System)
Method in brief: as §1

STK38 = molecular target: T10, STK38 (Homo sapiens, UniProt Q15208); test: NanoBRET K192; assay type: cell-based; conditions: HEK293
T10 construct: purchased Promega (NanoBRET Target Engagement K192 Kinase Selectivity System)
Method in brief: as §1

DAPK2 = molecular target: T11, DAPK2 (Homo sapiens, UniProt Q9UIK4); test: NanoBRET K192; assay type: cell-based
T11 construct: expressed in transfected cells; host or cells: HEK293
T11 sequence (Q9UIK4 whole entry): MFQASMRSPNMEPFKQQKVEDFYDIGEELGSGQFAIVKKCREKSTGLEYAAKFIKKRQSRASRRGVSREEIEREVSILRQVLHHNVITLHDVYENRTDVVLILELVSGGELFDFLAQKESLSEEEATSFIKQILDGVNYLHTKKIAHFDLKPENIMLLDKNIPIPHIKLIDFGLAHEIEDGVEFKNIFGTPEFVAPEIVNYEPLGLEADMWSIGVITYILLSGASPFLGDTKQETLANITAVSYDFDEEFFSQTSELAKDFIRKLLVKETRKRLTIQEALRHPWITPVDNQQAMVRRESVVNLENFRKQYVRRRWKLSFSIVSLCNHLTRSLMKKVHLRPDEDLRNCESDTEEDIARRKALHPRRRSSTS
Method in brief: as §1

STK35 = molecular target: T12, STK35 (Homo sapiens, UniProt Q8TDR2); test: NanoBRET K192; assay type: cell-based; conditions: HEK293
T12 construct: purchased Promega (NanoBRET Target Engagement K192 Kinase Selectivity System)
T12 sequence (Q8TDR2 whole entry): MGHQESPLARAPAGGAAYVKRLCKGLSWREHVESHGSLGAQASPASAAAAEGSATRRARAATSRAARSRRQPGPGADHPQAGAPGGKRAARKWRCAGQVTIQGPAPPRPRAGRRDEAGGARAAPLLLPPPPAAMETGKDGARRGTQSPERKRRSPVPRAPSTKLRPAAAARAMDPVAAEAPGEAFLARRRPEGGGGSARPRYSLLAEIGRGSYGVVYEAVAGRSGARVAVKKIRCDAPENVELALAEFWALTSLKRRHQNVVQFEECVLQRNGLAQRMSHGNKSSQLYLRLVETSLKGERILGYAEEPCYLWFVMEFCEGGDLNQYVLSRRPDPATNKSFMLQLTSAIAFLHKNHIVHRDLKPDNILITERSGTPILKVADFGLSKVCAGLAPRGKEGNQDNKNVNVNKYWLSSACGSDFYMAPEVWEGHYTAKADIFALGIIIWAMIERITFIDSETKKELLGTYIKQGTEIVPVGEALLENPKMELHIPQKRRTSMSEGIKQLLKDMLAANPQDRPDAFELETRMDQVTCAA
Method in brief: as §1

MAST3 = molecular target: T13, MAST3 (Homo sapiens, UniProt O60307); test: NanoBRET K192; assay type: cell-based; conditions: HEK293
T13 construct: purchased Promega (NanoBRET Target Engagement K192 Kinase Selectivity System)
T13 sequence (O60307 whole entry): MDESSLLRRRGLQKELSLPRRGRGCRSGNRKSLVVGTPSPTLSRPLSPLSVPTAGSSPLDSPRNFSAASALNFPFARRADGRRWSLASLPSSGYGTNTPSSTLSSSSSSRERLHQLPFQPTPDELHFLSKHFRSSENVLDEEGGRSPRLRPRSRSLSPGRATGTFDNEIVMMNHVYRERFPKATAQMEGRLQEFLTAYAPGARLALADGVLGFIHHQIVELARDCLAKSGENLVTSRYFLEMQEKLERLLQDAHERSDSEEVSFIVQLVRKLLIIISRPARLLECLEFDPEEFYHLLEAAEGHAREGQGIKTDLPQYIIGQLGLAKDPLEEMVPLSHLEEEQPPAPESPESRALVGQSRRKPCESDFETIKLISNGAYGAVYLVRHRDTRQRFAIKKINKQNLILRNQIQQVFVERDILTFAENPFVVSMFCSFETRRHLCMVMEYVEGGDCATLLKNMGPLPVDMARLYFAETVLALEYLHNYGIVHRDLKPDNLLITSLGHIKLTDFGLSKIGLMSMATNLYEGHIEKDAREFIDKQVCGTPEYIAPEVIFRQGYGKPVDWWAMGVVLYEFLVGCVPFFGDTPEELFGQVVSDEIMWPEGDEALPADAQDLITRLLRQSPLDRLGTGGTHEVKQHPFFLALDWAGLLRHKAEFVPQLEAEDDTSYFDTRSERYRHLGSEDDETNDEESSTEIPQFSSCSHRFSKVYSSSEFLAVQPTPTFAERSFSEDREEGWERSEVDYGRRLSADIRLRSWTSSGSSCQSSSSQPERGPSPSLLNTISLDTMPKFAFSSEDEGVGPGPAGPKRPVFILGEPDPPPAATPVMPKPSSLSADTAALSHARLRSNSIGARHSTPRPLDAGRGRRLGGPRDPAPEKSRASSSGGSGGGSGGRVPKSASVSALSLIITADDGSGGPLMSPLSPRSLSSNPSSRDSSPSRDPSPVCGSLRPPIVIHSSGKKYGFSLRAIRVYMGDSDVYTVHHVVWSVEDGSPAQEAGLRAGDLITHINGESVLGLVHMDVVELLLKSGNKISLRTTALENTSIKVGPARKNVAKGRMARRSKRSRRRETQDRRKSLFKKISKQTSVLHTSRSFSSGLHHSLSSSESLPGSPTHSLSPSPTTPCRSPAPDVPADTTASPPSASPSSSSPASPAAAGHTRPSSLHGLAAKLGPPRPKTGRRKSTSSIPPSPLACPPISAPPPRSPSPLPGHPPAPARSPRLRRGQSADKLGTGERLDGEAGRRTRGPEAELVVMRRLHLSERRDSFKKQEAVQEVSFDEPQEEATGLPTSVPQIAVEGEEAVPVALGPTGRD
Method in brief: as §1

Q: `CCC(=O)Nc1cc(Nc2cc(NC3CC3)n3ncc(C#N)c3n2)c(F)cc1N1CCC[C@H](NC)C1` [Compound 2, (S)-N-(5-((3-cyano-7-(cyclopropylamino)pyrazolo[1,5-a]pyrimidin-5-yl)amino)-4-fluoro-2-(3-(methylamino)piperidin-1-yl)phenyl)propionamide] was tested. Which “EIF2S2 (phospho-Ser2) levels normalized to total EIF2S2 in mouse lungs” value (CSNK2 [1]; 3, 6, 36 h, small decrease at 3 h, p = 0.14) did it give?
A: no statistically significant difference

Q: What about the “AKT (phospho-Ser129) levels normalized to total AKT in mouse lungs” value (CSNK2 [1]; 3 h time point, p = 0.0028) of the same compound?
A: A decrease in the phosphorylation levels of Ser129 of AKT

Q: What about the “phosphorylation levels of the CSNK2 substrate EIF2S2” value (CSNK2 [2]) of the same compound?
A: inhibited; also recorded: dose-dependent reduction

Q: What about the receptor occupancy at 10 µM (NEK2) of the same compound?
A: 4.2%

Q: And the receptor occupancy at 10 µM (RIOK2)?
A: -1.8%

Q: What about the receptor occupancy at 10 µM (BRSK2) of the same compound?
A: 13.6%

Q: What about the receptor occupancy at 10 µM (MAST4) of the same compound?
A: 11.4%

Q: What about the receptor occupancy at 10 µM (RPS6KA3) of the same compound?
A: 1.8%

Q: And the receptor occupancy at 10 µM (EPHA7)?
A: -2.5%

Q: And the receptor occupancy at 10 µM (TNNI3K)?
A: 8%

Q: What about the receptor occupancy at 10 µM (INSR) of the same compound?
A: 1.2%

Q: What about the receptor occupancy at 10 µM (CSNK1G2) of the same compound?
A: 21.8%

Q: And the receptor occupancy at 10 µM (STK38)?
A: -0.8%

Q: And the “% occupancy at 10 μM” value (DAPK2; DAPK2, HEK293)?
A: 72%

Q: What about the receptor occupancy at 10 µM (DAPK2; HEK293, DAPK2) of the same compound?
A: 72.1%

Q: What about the receptor occupancy at 10 µM (STK35) of the same compound?
A: 6.5%

Q: And the receptor occupancy at 10 µM (MAST3)?
A: -0.9%
